Results reported in PMC5356016, “Suppression of Sin3A activity promotes differentiation of pluripotent cells into functional neurons” (Scientific Reports, 2017).
Where no end group is shown, it is not given here.

T1: mouse Sin3A PAH2 (residues 295-385) (mouse, UniProt Q60520 295-385)
T1 construct: Sin3A, mouse, paired amphipathic helix 2 (PAH2) domain, residues 295-385
T1 sequence (looked up): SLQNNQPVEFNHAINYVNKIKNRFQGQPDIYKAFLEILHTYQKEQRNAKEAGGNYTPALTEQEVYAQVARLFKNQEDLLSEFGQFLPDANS

B1: Mad1 peptide (sequence 6-21 of the Mad1 protein) (peptide)
peptide: RMNIQMLLEAADYLER
notes: Mad1 protein, residues 6-21; source: synthetic peptide (solid support, Fmoc/t-Bu strategy)
B2: FITC-labeled Mad1 peptide (sequence 6-21 of the Mad1 protein) (peptide)
peptide: RMNIQMLLEAADYLER
modifications: also: FITC label, position not given here
notes: Mad1 protein, residues 6-21; where the FITC is attached may be told there; source: synthetic peptide (solid support, Fmoc/t-Bu strategy)
B3: SAP25 peptide (sequence 171-186 of the SAP25 protein) (peptide)
peptide: AEMIALAGLLQMSQGE
notes: SAP25 protein, residues 171-186; source: synthetic peptide (solid support, Fmoc/t-Bu strategy)
B4: PAH2: mouse Sin3A PAH2 (residues 295–385) (protein)
chain: T1 sequence (looked up)
B5: mouse Sin3A PAH1 (residues 114-195) (domain or fragment, UniProt Q60520 114-195, looked up)
chain: GQQQFQRLKVEDALSYLDQVKLQFGSQPQVYNDFLDIMKEFKSQSIDTPGVISRVSQLFKGHPDLIMGFNTFLPPGYKIEVQ
notes: Sin3A, mouse, paired amphipathic helix 1 (PAH1) domain, residues 114-195
B6: FITC-labeled SAP25 peptide (sequence 171-186 of the SAP25 protein) (peptide)
peptide: AEMIALAGLLQMSQGE
modifications: also: FITC label, position not given here
notes: SAP25 protein, residues 171-186; where the FITC is attached may be told there; source: synthetic peptide (solid support, Fmoc/t-Bu strategy)
B7: GST-REST, mouse REST (residues 31-120) (domain or fragment, UniProt Q8VIG1 31-120, looked up)
chain: YDLHELSKAELAAPQLIMLANVALTGEASGSCCDYLVGEERQMAELMPVGDNHFSESEGEGLEESADLKGLENMELGSLELSAVEPQPVF
notes: RE1 silencing transcription factor (REST), mouse, residues 31-120

Columns and labels:
[1] = test system: smoothened (SMO); set-up: method as in PMID 12679522; conditions: Shh signaling pathway; ref [30]; cited from earlier work
[2] = test system: Shh signaling pathway; assay: Signaling pathway study, Shh pathway inhibitor in Sin3A knockdown P19 cells; assay type: cell-based, mouse; conditions: 30 μM Cur61414, 10 days; Tuj1 immunocytochemistry, western blot, RT-PCR; at least three experiments
Experimental: Figure 2 Signaling pathways associated with Sin3A knockdown-induced neurogenesis in P19 cells. (a–c) Sin3A knockdown P19 cells were incubated for 10 days in the absence and presence of an inhibitor for the Wnt pathway, 30 μM NSC668036 or 25 nM PFK118-310. (a) The cells were immunostained with Tuj1 antibody ([…]). (b) Expression levels of β-catenin and Tuj1 were examined by using western blot analysis. (c) Transcriptional levels of Tuj1 and NeuroD1 were examined by using RT-PCR. (d-e) Sin3A knockdown P19 cells were incubated for 10 days in the absence and presence of an inhibitor for the Shh pathway, 30 μM Cur61414. (d) The cells were immunostained with Tuj1 antibody ([…]). (e) The expression level of Tuj1 was examined by using western blot and (f) RT-PCR analyses. All experiments were conducted at least three times.
SMART™ BCA Protein Assay Kit (iNtRON Biot echnology). […]
Sin3A and Sin3B knockdown P19 cells were incubated for 10 days without any treatment. mRNA samples were isolated using an mRNA extraction kit (iNtRON Biotechnology, Inc.) according to the manufacture’s protocol. Samples were analyzed in duplicates on the GeneChip® Mouse Gene 2.0 ST Array (Affymetrix). […]

[3] = test system: Wnt/β-catenin pathway; assay: Signaling pathway study, Wnt/β-catenin pathway inhibitors in Sin3A knockdown P19 cells; assay type: cell-based, mouse; conditions: for transcriptional level of NeuroD1 (in words): RT-PCR; for neurogenesis inducing capability of Sin3A-silenced cells (in words) / translational level of β-catenin (in words): versus untreated cells; for neurogenesis inducing capability of Sin3A-silenced cells (in words): at least three experiments; for translational level of β-catenin (in words): western blot
[4] = test system: PDZ domain of Dishevelled (Dvl/Dsh) protein; conditions: upstream inhibitor for the Wnt/β-catenin pathway; ref [28]; cited from earlier work
[5] = test system: complex between Tcf4 and β-catenin; conditions: downstream inhibitor for the Wnt/β-catenin pathway; no reference given; cited from earlier work
[6] = test system: P19 cells; assay: Astrocyte differentiation of P19 cells (GFAP and S100); assay type: cell-based, mouse; conditions: 1 μM retinoic acid, 10 days, untransfected P19 cells; Tuj1, GFAP, S100 immunocytochemistry
[7] = target: T1, mouse Sin3A PAH2 (residues 295-385); assay: ELISA; competition: PAH1 or PAH2 (1 ug/mL) coated wells pre-incubated 2 h with various concentrations of SAP25 or Mad1 peptide, then GST-REST (2 ug/mL) for 2 h; detected with anti-GST antibody and HRP conjugated secondary antibody; conditions: both partners purified
[8] = target: T1, mouse Sin3A PAH2 (residues 295-385); assay: fluorescence polarisation; FITC-labeled Mad1 and SAP25 peptides incubated separately with various concentrations of PAH1 and PAH2; conditions: both partners purified
[9] = target: B5; assay: ELISA; competition: PAH1 or PAH2 (1 ug/mL) coated wells pre-incubated 2 h with various concentrations of SAP25 or Mad1 peptide, then GST-REST (2 ug/mL) for 2 h; detected with anti-GST antibody and HRP conjugated secondary antibody; conditions: both partners purified
[10] = test system: mouse REST (residues 31–120); assay: ELISA binding of Sin3A PAH1 and PAH2 domains to REST; conditions: wells coated with PAH1 or PAH2 (1 μg/mL), GST-REST 0-2 μg/mL, 2 h, mean ± s.d., n = 3
[11] = target: B7; assay: ELISA; Sin3A PAH1 and PAH2 with mouse REST (residues 31-120); who was coated is not told for this experiment; conditions: both partners purified
[12] = target: B5; assay: fluorescence polarisation; FITC-labeled Mad1 and SAP25 peptides incubated separately with various concentrations of PAH1 and PAH2; conditions: both partners purified
[13] = target: T1, mouse Sin3A PAH2 (residues 295-385); assay: ELISA; Sin3A PAH1 and PAH2 with mouse REST (residues 31-120); who was coated is not told for this experiment; conditions: both partners purified

Molecule: COc1cccc(CN(C(=O)CC(C)(C)C)[C@H]2C[C@@H](C(=O)N3CCNCC3)N(Cc3ccc4c(c3)OCO4)C2)c1 [Cur61414]
- inhibition of smoothened (in words) [1]: a known inhibitor of smoothened (SMO)
- neurogenesis-inducing ability of Sin3A-knockdown cells (in words) [2]: greatly reduced

Molecule: CC(NC(=O)C(OC(=O)C(C)NC(=O)OC(C)(C)C)C(C)C)C(=O)OC(C(=O)O)C(C)C (stereo not shown) [NSC668036]
- transcriptional level of NeuroD1 (in words) ([3]; 30 μM NSC668036, 10 days): greatly reduced
- neurogenesis inducing capability of Sin3A-silenced cells (in words) ([3]; 30 μM NSC668036, 10 days): attenuated
- translational level of β-catenin (in words) ([3]; 30 μM NSC668036, 10 days): markedly decreased
- binding to PDZ domain and inhibition of Dvl-Frizzled interaction (in words) [4]: binds to the PDZ domain of Dishevelled (Dvl/Dsh) protein, a key component of Wnt signaling, and inhibits its interaction with Frizzled (Fzd)

Molecule: Cn1ncnc2c(=O)n(C)c(=O)nc1-2 [PKF118-310]
- transcriptional level of NeuroD1 (in words) ([3]; 25 nM PKF118-310, 10 days): greatly reduced
- neurogenesis inducing capability of Sin3A-silenced cells (in words) ([3]; 25 nM PKF118-310, 10 days): attenuated
- translational level of β-catenin (in words) ([3]; 25 nM PKF118-310, 10 days): markedly decreased
- inhibition of Tcf4/β-catenin complex formation (in words) [5]: blocks the formation of the complex between Tcf4 and β-catenin

Molecule: CC1=C(/C=C/C(C)=C/C=C/C(C)=C/C(=O)O)C(C)(C)CCC1 [RA, retinoic acid]
- neurogenesis and astrogenesis of RA-treated P19 cells (in words) [6]: underwent neurogenesis and astrogenesis

Molecule: B1
- binding result [7]: binds

Molecule: B2
- binding result [8]: binds

Molecule: B3
- binding result [9]: binds

Molecule: B4
- binding to REST (in words) [10]: bind with near equal strengths to REST

Molecule: B5
- binding result [11]: binds
- binding to REST (in words) [10]: bind with near equal strengths to REST

Molecule: B6
- binding result [12]: binds

Molecule: B7
- binding result [13]: binds
